The numbers were not newly measured in paper PMC4484741 (Nuclear medicine and biology, 2011), which cites them from elsewhere.

Like-named read-outs stand apart in the source and are kept apart here.

Data set [1] deals with pancreatic BCM. The note with it: rats, PET.
Data set [2] concerns the target GLP-1 receptor. The note with it: read-out: Kd, affinity to GLP-1 receptor.

With “GLP-1: endogenous ligand of the GLP-1 receptor”, the half-life in vivo (fast degradation by dipeptidyl peptidase-4) is 1 to 2 min. As for `COc1cc2c(cc1O[11CH3])CCN1CC(CC(C)C)C(O)CC21` (centres unmarked) [[^11C]DTBZ], in data set [1], the “Time within which liver and pancreas uptake rose to a plateau” value is no more than 15 min. Take “Exendin-4: 39-amino acid peptide hormone from Gila monster saliva, agonist of GLP-1 receptor”: the half-life in vivo entry is listed as “about 2.4 h”. Regarding “Exendin (9-39): truncated version of exendin-4, antagonist of GLP-1 receptor”, in data set [2], the Kd was roughly 3 nM.

Turning to `COc1cc2c(cc1OCCC[18F])CCN1C[C@@H](CC(C)C)[C@H](O)C[C@H]21` [[^18F]FP-DTBZ], the “Time within which liver and pancreas uptake rose to a plateau” value in data set [1] is no more than 15 min.
